Positions of bridges follow the written chain, without caps; N, C: chain ends. Non-standard residues stand in square brackets, D forms with d. Residues, ends and D or L forms follow the SMILES beside them. Gly(1-adamantyl) = N[C@H](C(=O)O)C12CC3CC(CC(C3)C1)C2; Bip = N[C@@H](Cc1ccc(-c2ccccc2)cc1)C(=O)O; hCha = N[C@@H](CCC1CCCCC1)C(=O)O; R8 = C=CCCCCCC[C@@](C)(N)C(=O)O; Cit = NC(=O)NCCC[C@H](N)C(=O)O; αMeL = CC(C)C[C@](C)(N)C(=O)O; S5 = C=CCCC[C@](C)(N)C(=O)O
Assays:
Bcl-xL = Bcl-xL (Homo sapiens, UniProt Q07817); assay: Ki determination for Bcl-xL (BCL-2 family binding spectrum); settings: read-out: Ki BCL-XL
From the text: (§1) To assess the binding and affinity of compounds that antagonize the interaction between a peptide and an acceptor protein, a fluorescence polarization assay (FPA) utilizing a fluoresceinated peptidomimetic macrocycle derived from a peptidomimetic precursor sequence is used, for example. The FPA technique measures the molecular orientation and mobility using polarized light and fluorescent tracer. […] A compound that antagonizes the interaction between the fluoresceinated peptidomimetic macrocycle and an acceptor protein will be detected in a competitive binding FPA experiment.
(§2) For example, putative antagonist compounds (1 nM to 1 mM) and a fluoresceinated peptidomimetic macrocycle (25 nM) are incubated with the acceptor protein (50 nM) in binding buffer (140 mM NaCl, 50 mM Tris-HCL, pH 7.4) for 30 minutes at room temperature. Antagonist binding activity is measured, for example, by fluorescence polarization on a luminescence spectrophotometer (e.g. Perkin-Elmer LS50B). Kd values may be determined by nonlinear regression analysis using, for example, Graphpad Prism software (GraphPad Software, Inc., San Diego, Calif.).

Bcl-2 = Bcl-2 (Homo sapiens, UniProt P10415); assay: Ki determination for Bcl-2 (BCL-2 family binding spectrum); settings: read-out: Ki BCL-2
From the text: as §1, §2

Mcl-1 = Mcl-1 (Homo sapiens, UniProt Q07820); assay: Ki determination for Mcl-1 (BCL-2 family binding spectrum); settings: read-out: Ki MCL-1
Method in brief: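 Competitive fluorescence polarization assay in which compounds displace a fluoresceinated peptidomimetic macrocycle tracer from Mcl-1. Affinity constants were obtained by nonlinear regression.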

Sequence of Mcl-1 (Q07820 whole entry, species assumed): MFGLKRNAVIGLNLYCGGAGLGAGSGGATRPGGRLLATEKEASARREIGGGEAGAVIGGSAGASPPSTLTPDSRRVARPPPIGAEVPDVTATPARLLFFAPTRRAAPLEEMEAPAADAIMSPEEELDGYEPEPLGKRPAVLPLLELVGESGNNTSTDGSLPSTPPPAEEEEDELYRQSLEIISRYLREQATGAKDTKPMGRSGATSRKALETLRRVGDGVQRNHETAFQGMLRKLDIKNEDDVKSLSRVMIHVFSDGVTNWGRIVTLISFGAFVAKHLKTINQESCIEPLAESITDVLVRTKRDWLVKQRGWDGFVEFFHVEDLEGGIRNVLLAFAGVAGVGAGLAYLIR
Sequence of Bcl-2 (P10415 whole entry, species assumed): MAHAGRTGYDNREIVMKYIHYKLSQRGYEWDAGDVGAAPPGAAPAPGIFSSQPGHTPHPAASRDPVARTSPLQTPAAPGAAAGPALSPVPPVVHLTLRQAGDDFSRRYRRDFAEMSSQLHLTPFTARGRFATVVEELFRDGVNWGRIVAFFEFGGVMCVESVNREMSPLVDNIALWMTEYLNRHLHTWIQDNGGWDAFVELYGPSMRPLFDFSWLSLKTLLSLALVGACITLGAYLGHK
Sequence of Bcl-xL (Q07817 whole entry, species assumed): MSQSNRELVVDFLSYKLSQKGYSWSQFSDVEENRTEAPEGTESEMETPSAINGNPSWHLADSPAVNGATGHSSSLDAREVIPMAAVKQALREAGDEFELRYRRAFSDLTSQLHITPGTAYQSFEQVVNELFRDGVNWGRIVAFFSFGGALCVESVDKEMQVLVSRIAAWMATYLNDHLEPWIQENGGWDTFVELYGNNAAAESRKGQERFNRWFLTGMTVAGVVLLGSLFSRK

| Ki (Bcl-xL) | Ki (Bcl-2) | Ki (Mcl-1) | SMILES |
| --- | --- | --- | --- |
| 0.402 µM | 0.14 µM | 0.0075 µM | CC[C@H](C)[C@H](NC(C)=O)C(=O)N[C@@H](Cc1c[nH]c2ccccc12)C(=O)N[C@H](C(=O)N[C@@H](C)C(=O)N[C@@H](CCC(N)=O)C(=O)N[C@@H](C)C(=O)N[C@@H](CC(C)C)C(=O)N[C@@H](CCCNC(=N)N)C(=O)N[C@]1(C)CCCCCCC=CCCC[C@@](C)(C(=O)N[C@@H](Cc2ccc(O)cc2)C(=O)N[C@@H](Cc2ccc(O)cc2)C(=O)N[C@@H](C)C(N)=O)NC(=O)[C@H](CC(N)=O)NC(=O)[C@H](C)NC(=O)[C@H](C)NC(=O)[C@H](CC(=O)O)NC(=O)CNC(=O)[C@H]([C@@H](C)CC)NC1=O)[C@@H](C)CC [compound 1661] (Ac-IWIAQALR[R8]IGDAAN[S5]YYA-NH2; staple 9-16) |
| > 1 µM | > 1 µM | 0.0038 µM | CC[C@H](C)[C@H](NC(C)=O)C(=O)N[C@@H](Cc1c[nH]c2ccccc12)C(=O)N[C@H](C(=O)N[C@@H](C)C(=O)N[C@@H](CCC(N)=O)C(=O)N[C@@H](C)C(=O)N[C@@H](CCC1CCCCC1)C(=O)N[C@@H](CCCNC(=N)N)C(=O)N[C@]1(C)CCCCCCC=CCCC[C@@](C)(C(=O)N[C@@H](Cc2ccc(O)cc2)C(=O)N[C@@H](Cc2ccc(O)cc2)C(=O)N[C@@H](C)C(N)=O)NC(=O)[C@H](CC(N)=O)NC(=O)[C@H](Cc2ccccc2)NC(=O)[C@H](C)NC(=O)[C@H](CC(=O)O)NC(=O)CNC(=O)[C@H]([C@@H](C)CC)NC1=O)[C@@H](C)CC [compound 1690] (Ac-IWIAQA[hCha]R[R8]IGDAFN[S5]YYA-NH2; staple 9-16) |
| 0.11 µM | 0.125 µM | – | CC[C@H](C)[C@H](NC(C)=O)C(=O)N[C@@H](Cc1c[nH]c2ccccc12)C(=O)N[C@H](C(=O)N[C@@H](Cc1ccccc1)C(=O)N[C@@H](C)C(=O)N[C@@H](C)C(=O)N[C@@H](CC(C)C)C(=O)N[C@@H](CCCNC(=N)N)C(=O)N[C@]1(C)CCCCCCC=CCCC[C@@](C)(C(=O)N[C@@H](Cc2ccc(O)cc2)C(=O)N[C@@H](Cc2ccc(O)cc2)C(=O)N[C@@H](C)C(N)=O)NC(=O)[C@H](CC(N)=O)NC(=O)[C@H](Cc2ccccc2)NC(=O)[C@H](C)NC(=O)[C@H](CC(=O)O)NC(=O)CNC(=O)[C@H]([C@@H](C)CC)NC1=O)[C@@H](C)CC [compound 1735] (Ac-IWIFAALR[R8]IGDAFN[S5]YYA-NH2; staple 9-16) |
| > 1 µM | > 1 µM | > 1 µM | CC[C@H](C)[C@H](NC(C)=O)C(=O)N[C@@H](Cc1c[nH]c2ccccc12)C(=O)N[C@H](C(=O)N[C@@H](C)C(=O)N[C@@H](CCC(N)=O)C(=O)N[C@@H](C)C(=O)N[C@@H](CC(C)C)C(=O)N[C@@H](Cc1c[nH]cn1)C(=O)N[C@]1(C)CCCCCCC=CCCC[C@@](C)(C(=O)N[C@@H](Cc2ccc(O)cc2)C(=O)N[C@@H](Cc2ccc(O)cc2)C(=O)N[C@@H](C)C(N)=O)NC(=O)[C@H](CC(N)=O)NC(=O)[C@H](Cc2ccccc2)NC(=O)[C@H](C)NC(=O)[C@H](CC(=O)O)NC(=O)CNC(=O)[C@H]([C@@H](C)CC)NC1=O)[C@@H](C)CC [compound 1657] (Ac-IWIAQALH[R8]IGDAFN[S5]YYA-NH2; staple 9-16) |
| > 1 µM | > 1 µM | – | CC[C@H](C)[C@H](NC(C)=O)C(=O)N[C@@H](Cc1c[nH]c2ccccc12)C(=O)N[C@H](C(=O)N[C@@H](C)C(=O)N[C@@H](CCC(N)=O)C(=O)N[C@@H](C)C(=O)N[C@@H](CC(C)C)C(=O)N[C@@H](CCCNC(N)=O)C(=O)N[C@]1(C)CCCCCCC=CCCC[C@@](C)(C(=O)N[C@@H](Cc2ccc(O)cc2)C(=O)N[C@@H](Cc2ccc(O)cc2)C(=O)N[C@@H](C)C(N)=O)NC(=O)[C@H](CC(N)=O)NC(=O)[C@H](C)NC(=O)[C@H](C)NC(=O)[C@H](CC(=O)O)NC(=O)CNC(=O)[C@H]([C@@H](C)CC)NC1=O)[C@@H](C)CC [compound 1773] (Ac-IWIAQAL[Cit][R8]IGDAAN[S5]YYA-NH2; staple 9-16) |
| > 1 µM | > 1 µM | – | CC[C@H](C)[C@H](NC(C)=O)C(=O)N[C@@H](C)C(=O)N[C@@H](CCC(N)=O)C(=O)N[C@@H](C)C(=O)N[C@@H](CC(C)C)C(=O)N[C@@H](CCCNC(=N)N)C(=O)N[C@]1(C)CCCCCCC=CCCC[C@@](C)(C(=O)N[C@@H](Cc2ccc(O)cc2)C(=O)N[C@@H](C)C(=O)N[C@@H](C)C(N)=O)NC(=O)[C@H](CC(N)=O)NC(=O)[C@H](Cc2ccccc2)NC(=O)[C@H](C)NC(=O)[C@H](CC(=O)O)NC(=O)CNC(=O)[C@H]([C@@H](C)CC)NC1=O [compound 1632] (Ac-IAQALR[R8]IGDAFN[S5]YAA-NH2; staple 7-14) |
| > 1 µM | > 1 µM | – | CC[C@H](C)[C@H](NC(C)=O)C(=O)N[C@@H](C)C(=O)N[C@@H](CCC(N)=O)C(=O)N[C@@H](C)C(=O)N[C@@H](CC(C)C)C(=O)N[C@@H](CCCNC(=N)N)C(=O)N[C@]1(C)CCCCCCC=CCCC[C@@](C)(C(=O)N[C@@H](Cc2ccc(O)cc2)C(=O)N[C@@H](Cc2ccc(O)cc2)C(=O)N[C@@H](C)C(N)=O)NC(=O)[C@H](CC(N)=O)NC(=O)[C@H](C)NC(=O)[C@H](C)NC(=O)[C@H](CC(=O)O)NC(=O)CNC(=O)[C@H]([C@@H](C)CC)NC1=O [compound 1639] (Ac-IAQALR[R8]IGDAAN[S5]YYA-NH2; staple 7-14) |
| 0.11 µM | > 1 µM | – | CC[C@H](C)[C@H](NC(C)=O)C(=O)N[C@@H](Cc1c[nH]c2ccccc12)C(=O)N[C@H](C(=O)N[C@@H](C)C(=O)N[C@@H](CCC(N)=O)C(=O)N[C@@H](C)C(=O)N[C@H](C(=O)N[C@@H](CCCNC(=N)N)C(=O)N[C@]1(C)CCCCCC/C=C\CCC[C@@](C)(C(=O)N[C@@H](Cc2ccc(O)cc2)C(=O)N[C@@H](Cc2ccc(O)cc2)C(=O)N[C@@H](C)C(N)=O)NC(=O)[C@H](CC(N)=O)NC(=O)[C@H](Cc2ccccc2)NC(=O)[C@H](C)NC(=O)[C@H](CC(=O)O)NC(=O)CNC(=O)[C@H]([C@@H](C)CC)NC1=O)C12CC3CC(CC(C3)C1)C2)[C@@H](C)CC [compound 1689] (Ac-IWIAQA[Gly(1-adamantyl)]R[R8]IGDAFN[S5]YYA-NH2; staple (Z) 9-16) |
| > 1 µM | > 1 µM | – | CC[C@H](C)[C@H](NC(C)=O)C(=O)N[C@@H](Cc1c[nH]c2ccccc12)C(=O)N[C@H](C(=O)N[C@@H](C)C(=O)N[C@@H](CCC(N)=O)C(=O)N[C@@H](C)C(=O)N[C@@](C)(CC(C)C)C(=O)N[C@@H](CCCNC(=N)N)C(=O)N[C@]1(C)CCCCCCC=CCCC[C@@](C)(C(=O)N[C@@H](Cc2ccc(O)cc2)C(=O)N[C@@H](Cc2ccc(O)cc2)C(=O)N[C@@H](C)C(N)=O)NC(=O)[C@H](CC(N)=O)NC(=O)[C@H](Cc2ccccc2)NC(=O)[C@H](C)NC(=O)[C@H](CC(=O)O)NC(=O)CNC(=O)[C@H]([C@@H](C)CC)NC1=O)[C@@H](C)CC [compound 1767] (Ac-IWIAQA[αMeL]R[R8]IGDAFN[S5]YYA-NH2; staple 9-16) |
| – | > 1 µM | 0.011 µM | CC[C@H](C)[C@H](NC(C)=O)C(=O)N[C@@H](Cc1c[nH]c2ccccc12)C(=O)N[C@@H](Cc1ccc(-c2ccccc2)cc1)C(=O)N[C@@H](C)C(=O)N[C@@H](CCC(N)=O)C(=O)N[C@@H](C)C(=O)N[C@@H](CC(C)C)C(=O)N[C@@H](CCCNC(=N)N)C(=O)N[C@]1(C)CCCCCCC=CCCC[C@@](C)(C(=O)N[C@@H](Cc2ccc(O)cc2)C(=O)N[C@@H](Cc2ccc(O)cc2)C(=O)N[C@@H](C)C(N)=O)NC(=O)[C@H](CC(N)=O)NC(=O)[C@H](Cc2ccccc2)NC(=O)[C@H](C)NC(=O)[C@H](CC(=O)O)NC(=O)CNC(=O)[C@H]([C@@H](C)CC)NC1=O [compound 1686] (Ac-IW[Bip]AQALR[R8]IGDAFN[S5]YYA-NH2; staple 9-16) |
| > 1 µM | > 1 µM | – | CC[C@H](C)[C@H](NC(C)=O)C(=O)N[C@@H](Cc1c[nH]c2ccccc12)C(=O)N[C@H](C(=O)N[C@@H](C)C(=O)N[C@@H](CCC(N)=O)C(=O)N[C@@H](C)C(=O)N[C@@H](CC(C)C)C(=O)N[C@@H](CCCNC(N)=O)C(=O)N[C@]1(C)CCCCCCC=CCCC[C@@](C)(C(=O)N[C@@H](Cc2ccc(O)cc2)C(=O)N[C@@H](Cc2ccc(O)cc2)C(=O)N[C@@H](C)C(N)=O)NC(=O)[C@H](CC(N)=O)NC(=O)[C@H](C(C)C)NC(=O)[C@H](C)NC(=O)[C@H](CC(=O)O)NC(=O)CNC(=O)[C@H]([C@@H](C)CC)NC1=O)[C@@H](C)CC [compound 1774] (Ac-IWIAQAL[Cit][R8]IGDAVN[S5]YYA-NH2; staple 9-16) |

| SMILES | Ki (Bcl-xL) | Ki (Bcl-2) | Ki (Mcl-1) |
| --- | --- | --- | --- |
| CC[C@H](C)[C@H](NC(C)=O)C(=O)N[C@@H](C)C(=O)N[C@@H](CCC(N)=O)C(=O)N[C@@H](C)C(=O)N[C@@H](CC(C)C)C(=O)N[C@@H](C)C(=O)N[C@]1(C)CCCCCCC=CCCC[C@@](C)(C(=O)N[C@@H](Cc2ccc(O)cc2)C(=O)N[C@@H](Cc2ccc(O)cc2)C(=O)N[C@@H](C)C(N)=O)NC(=O)[C@H](CC(N)=O)NC(=O)[C@H](Cc2ccccc2)NC(=O)[C@H](C)NC(=O)[C@H](CC(=O)O)NC(=O)CNC(=O)[C@H]([C@@H](C)CC)NC1=O [compound 1637] (Ac-IAQALA[R8]IGDAFN[S5]YYA-NH2; staple 7-14) | > 1 µM | > 1 µM | – |
